1 compound from US10709758B2 (priority 2015, dated 2020) can be followed below.

This data set concerns the target TcdB1 (Clostridioides difficile, UniProt P18177).

Sequence of TcdB1 (P18177 2-2366 limits assumed): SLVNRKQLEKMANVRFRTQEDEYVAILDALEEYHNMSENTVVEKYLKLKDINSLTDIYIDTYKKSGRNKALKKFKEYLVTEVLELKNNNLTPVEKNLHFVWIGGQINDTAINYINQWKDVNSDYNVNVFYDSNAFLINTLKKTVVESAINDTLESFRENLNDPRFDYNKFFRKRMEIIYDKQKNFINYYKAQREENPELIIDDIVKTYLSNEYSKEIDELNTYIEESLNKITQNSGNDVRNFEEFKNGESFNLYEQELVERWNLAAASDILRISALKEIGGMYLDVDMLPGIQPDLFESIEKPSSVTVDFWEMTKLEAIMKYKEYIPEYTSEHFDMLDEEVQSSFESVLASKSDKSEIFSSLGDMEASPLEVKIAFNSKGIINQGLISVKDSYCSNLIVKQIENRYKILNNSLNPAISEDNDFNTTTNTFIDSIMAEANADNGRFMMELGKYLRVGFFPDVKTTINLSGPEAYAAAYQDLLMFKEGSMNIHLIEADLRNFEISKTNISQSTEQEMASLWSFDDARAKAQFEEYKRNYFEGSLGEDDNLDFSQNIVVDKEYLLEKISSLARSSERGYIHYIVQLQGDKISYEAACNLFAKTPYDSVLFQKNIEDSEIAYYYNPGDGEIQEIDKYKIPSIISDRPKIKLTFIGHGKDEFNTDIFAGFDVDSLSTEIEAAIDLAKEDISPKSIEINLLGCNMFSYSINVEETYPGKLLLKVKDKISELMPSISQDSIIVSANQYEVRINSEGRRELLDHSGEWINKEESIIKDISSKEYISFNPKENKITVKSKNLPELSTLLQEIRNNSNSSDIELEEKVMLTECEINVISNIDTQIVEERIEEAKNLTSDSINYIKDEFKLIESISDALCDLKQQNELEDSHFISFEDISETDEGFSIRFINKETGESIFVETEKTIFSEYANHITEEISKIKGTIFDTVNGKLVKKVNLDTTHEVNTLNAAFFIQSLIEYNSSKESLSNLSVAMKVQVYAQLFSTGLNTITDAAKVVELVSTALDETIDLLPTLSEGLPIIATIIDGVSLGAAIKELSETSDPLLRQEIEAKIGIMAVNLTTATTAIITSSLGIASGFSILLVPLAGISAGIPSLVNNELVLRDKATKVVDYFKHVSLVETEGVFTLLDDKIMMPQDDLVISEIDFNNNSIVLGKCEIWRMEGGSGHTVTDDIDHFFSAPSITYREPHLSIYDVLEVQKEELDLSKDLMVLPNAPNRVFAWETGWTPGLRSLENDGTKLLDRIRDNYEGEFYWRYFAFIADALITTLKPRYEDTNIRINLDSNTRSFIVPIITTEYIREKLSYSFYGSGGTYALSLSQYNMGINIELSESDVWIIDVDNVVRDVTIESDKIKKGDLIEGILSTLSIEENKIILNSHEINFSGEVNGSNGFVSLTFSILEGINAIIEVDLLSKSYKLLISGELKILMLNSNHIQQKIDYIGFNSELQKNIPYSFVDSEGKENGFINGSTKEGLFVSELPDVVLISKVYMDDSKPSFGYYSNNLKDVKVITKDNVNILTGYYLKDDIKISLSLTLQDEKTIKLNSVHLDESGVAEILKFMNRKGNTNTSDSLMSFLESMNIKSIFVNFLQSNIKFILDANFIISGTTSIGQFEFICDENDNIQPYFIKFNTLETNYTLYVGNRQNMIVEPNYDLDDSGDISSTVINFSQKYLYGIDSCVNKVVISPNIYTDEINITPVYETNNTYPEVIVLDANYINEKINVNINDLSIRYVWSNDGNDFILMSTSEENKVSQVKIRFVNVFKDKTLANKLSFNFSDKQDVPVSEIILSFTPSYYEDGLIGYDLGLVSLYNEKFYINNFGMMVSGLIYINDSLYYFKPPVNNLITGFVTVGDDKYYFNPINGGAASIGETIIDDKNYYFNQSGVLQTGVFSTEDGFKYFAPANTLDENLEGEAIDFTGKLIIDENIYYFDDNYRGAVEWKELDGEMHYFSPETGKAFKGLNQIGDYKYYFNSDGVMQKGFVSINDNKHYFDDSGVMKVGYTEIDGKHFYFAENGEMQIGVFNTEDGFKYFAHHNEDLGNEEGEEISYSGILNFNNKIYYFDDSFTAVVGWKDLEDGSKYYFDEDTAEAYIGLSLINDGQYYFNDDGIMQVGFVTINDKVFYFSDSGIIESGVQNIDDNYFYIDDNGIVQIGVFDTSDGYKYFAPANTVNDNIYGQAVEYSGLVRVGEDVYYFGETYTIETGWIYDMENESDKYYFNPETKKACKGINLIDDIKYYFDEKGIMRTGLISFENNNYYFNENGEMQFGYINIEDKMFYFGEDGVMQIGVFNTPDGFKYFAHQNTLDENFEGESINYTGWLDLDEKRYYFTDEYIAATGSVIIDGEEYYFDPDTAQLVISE

As to `CC[C@H](C)[C@H](NC(=O)[C@H](CCCCN)NC(=O)[C@H](CC(=O)O)NC(=O)[C@H](CO)NC(=O)[C@@H](NC(=O)[C@@H](NC(=O)[C@H](CC(N)=O)NC(=O)CNC(=O)[C@H](CCCCN)NC(=O)[C@H](Cc1ccccc1)NC(=O)[C@@H](NC(=O)[C@@H](N)CC(N)=O)C(C)C)[C@@H](C)O)[C@@H](C)CC)C(=O)N[C@@H](CO)C(=O)N[C@@H](Cc1ccccc1)C(=O)N[C@@H](CC(N)=O)C(=O)N[C@@H](Cc1ccccc1)C(=O)N[C@@H](CO)C(=O)N[C@@H](CC(=O)O)C(=O)N[C@@H](CCCCN)C(=O)O` [PepB2], the “increase of the 50% toxic concentration (TC50) of TcdB1” value turned out to be 500 fold and the “protection from cytotoxicity of TcdB1 over a range of toxin concentrations” value is listed as “protects CHO-K1 cells”.
